Results on 20 compounds are retold here after EP1984353B1, “AURORA KINASE MODULATORS AND METHOD OF USE” (Amgen, Inc, priority 2006, dated 2007).

Where two headings read alike, the source gives them in different places.

One test has as its target T1, AuroraA-TPX2 (Homo sapiens, UniProt O14965).
T1 construct: 20 µL of AuroraA-TPX2 KD GST; GST
T1 sequence (O14965 133-383 limits assumed): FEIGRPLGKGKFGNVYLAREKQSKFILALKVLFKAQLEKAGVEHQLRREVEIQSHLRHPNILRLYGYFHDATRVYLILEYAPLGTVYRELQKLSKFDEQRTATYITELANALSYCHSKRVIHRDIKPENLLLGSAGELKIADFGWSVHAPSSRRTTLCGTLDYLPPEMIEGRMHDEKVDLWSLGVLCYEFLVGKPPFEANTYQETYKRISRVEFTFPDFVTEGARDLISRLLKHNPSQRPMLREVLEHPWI
T1 sequence (Q9ULW0 1-43 partner limits assumed): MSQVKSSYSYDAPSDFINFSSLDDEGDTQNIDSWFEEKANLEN
Put plainly: AuroraA-TPX2 Homogeneous Time Resolved Fluorescent (HTRF) kinase assay. Type of test: biochemical. The following applies: average, read-out: AurA/TP X2_ IC50_IP (Avg). As to the method: AuroraA-TPX2-Homogeneous Time Resolved Fluorescent (HTRF) Kinase Assay:
The Aurora-A HTRF assay begins with Aurora-A in the presence of ATP phosphorylating the biotinylated peptide PLK. The reaction incubates for about 120 min. Detection reagents are added to quench the reaction. These agents stop the reaction by diluting out the enzyme and chelating the metals due to the presence of EDTA. After addition, the assay is incubated overnight to allow the detection reagents to equilibrate.
The final concentration of PLK is about 1 µM. […] Buffer conditions are as follows: 60mM HEPES pH 7.5, 25mM NaCl, 10mM MgCl, 2mM DTT, 0.05% BSA.
The assay is quenched and stopped with 160 µL, of detection reagent. Detection reagents are as follows: Buffer made of 50mM Tris, pH 7.5, 100mM NaCl, 3mM EDTA, 0.05% BSA, 0.1% Tween20. Added to this buffer prior to reading is Steptavidin allophycocyanin (SA-APC) at a final conc in the assay of 0.0005 mg/mL, and europilated anti-phosphoPLK Ab (Eu-anti-PLK) at a final conc of 0.02 nM.
The assay plate is read in either a Discovery or a RubyStar. The eu-anti-PLK is excited at 320 nm and emits at 615 nm to excite the SA-APC which in turn emits at 655 nm.

For another test, the target named is T2, AuroraB (Homo sapiens, UniProt Q96GD4).
T2 construct: 20 µL of AuroraB FL His; His
Put plainly: AuroraB Homogeneous Time Resolved Fluorescent (HTRF) kinase assay. Type of test: biochemical. The following applies: average, read-out: AurB_ _IC50_IP (Avg). As to the method:
AuroraB-Homogeneous Time Resolved Fluorescent (HTRF) Kinase Assay:
The AuroraB HTRF assay begins with AuroraB in the presence of ATP phosphorylating the biotinylated peptide Histone H3. The reaction incubates for about 90 min. the reaction is quentched by addition of detection reagents, which stop the reaction by diluting out the enzyme and chelating the metals due to the presence of EDTA. After addition, the assay is incubated for about 60 min to allow detection reagents to equilibrate.
The AuroraB HTRF assay comprises 1 µL of compound in 100% DMSO, 20 µL of ATP and biotinylated Histone H3, and 20 µL of AuroraB FL His for a final volume of 41 µL. The final concentration of Histone H3 is 0.1 µM. The final concentration of ATP is 23 µM (Km(app) = 23 µM+/-2.6) and the final concentration of AuroraB is 400 pM. Buffer conditions are as follows: 50mM HEPES pH 7.5, 5mM NaCl, 0.5mM MgCl, 0.5mM MnCl, 2mM DTT, 0.05% BSA.
The assay is quenched and stopped with 160 µL of detection reagent. Detection reagents are as follows: Buffer made of 50mM Tris, pH 7.5, 100mM NaCl, 3mM EDTA, 0.05% BSA, 0.1% Tween20. Added to this buffer prior to reading is Steptavidin allophycocyanin (SA-APC) at a final conc in the assay of 0.001 mg/mL, and europilated anti-phosphoHistoneH3 Ab (Eu-anti-HisH3) at a final conc of 0.064 nM.
The assay plate is read in either a Discovery or a RubyStar. The eu-anti-HisH3 is excited at 320 nm and emits at 615 nm to excite the SA-APC which in turn emits at 655 nm. The ratio of SA-APC at 655 nm (excited due to close proximity to the Eu-anti-HisH3 because of phosphorylation of the peptide) to free Eu-anti-HisH3 at 615 nm will give substrate phosphorylation.
(In general: In TR-FRET formats the signal depends on donor and acceptor labels being close together.)

[1] abbreviates: given as numbers, unit inferred.

T2 sequence (Q96GD4 whole entry): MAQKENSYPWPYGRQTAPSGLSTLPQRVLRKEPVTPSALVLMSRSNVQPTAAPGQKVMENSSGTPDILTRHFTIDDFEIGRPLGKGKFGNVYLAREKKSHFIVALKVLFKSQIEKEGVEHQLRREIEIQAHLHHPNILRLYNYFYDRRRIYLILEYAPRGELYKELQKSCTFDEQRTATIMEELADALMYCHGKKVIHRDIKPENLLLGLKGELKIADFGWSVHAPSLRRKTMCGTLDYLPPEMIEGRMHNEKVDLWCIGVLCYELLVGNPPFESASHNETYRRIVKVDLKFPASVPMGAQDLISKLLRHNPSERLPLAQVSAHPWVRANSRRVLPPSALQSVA

For `Cc1csc(-c2nnc(Nc3ccc(Oc4ncccc4-c4ccnc5c4CCN5)cc3)c3ccccc23)n1` [compound 288, N-(4-((3-(2,3-dihydro-1H-pyrrolo[2,3-b]pyridin-4-yl)-2-pyridinyl)oxy)phenyl)-4-(4-methyl-1,3-thiazol-2-yl)-1-phthalazinamine], the IC50 at AuroraA-TPX2 (given as class symbols) was no more than 0.1 µM; on AuroraB (given as class symbols) it was 0.5 to 2.5 µM.
As to `Cc1ccc(-c2nnc(Nc3ccc(Oc4ncccc4-c4ccnc(N)n4)nc3)c3ccccc23)nc1` [compound 289, N-(6-((3-(2-amino-4-pyrimidinyl)-2-pyridinyl)oxy)-3-pyridinyl)-4-(5-methyl-2-pyridinyl)-1-phthalazinamine], the IC50 at AuroraA-TPX2 (setting [1]) was 0.0241 µM; at AuroraB (setting [1]), 0.0019 µM.
On to `CN1CCN(CCCNc2ncc(F)c(-c3cccnc3Oc3ccc(Nc4nnc(-c5ccccc5)c5ccccc45)cc3)n2)CC1` [compound 291, N-(4-((3-(5-fluoro-2-((3-(4-methyl-1-piperazinyl)propyl)amino)-4-pyrimidinyl)-2-pyridinyl)oxy)phenyl)-4-phenyl-1-phthalazinamine], for which the figures for the IC50 at AuroraA-TPX2 (setting [1]) and at AuroraB (setting [1]) were 0.0157 µM and 0.003 µM, respectively.
In the case of `COc1cccc(-c2nnc(Nc3ccc(Oc4ncccc4-c4ccnc(N)n4)cc3)c3ccccc23)n1` [compound 292, N-(4-((3-(2-amino-4-pyrimidinyl)-2-pyridinyl)oxy)phenyl)-4-(6-(methyloxy)-2-pyridinyl)-1-phthalazinamine], the IC50 on AuroraA-TPX2 (given as class symbols) and at AuroraB (given as class symbols) was no more than 0.1 µM throughout.
On to `COc1cccc(-c2nnc(Nc3ccc(Oc4ncccc4-c4ccnc(N)n4)nc3)c3ccccc23)n1` [compound 293, N-(6-((3-(2-amino-4-pyrimidinyl)-2-pyridinyl)oxy)-3-pyridinyl)-4-(6-(methyloxy)-2-pyridinyl)-1-phthalazinamine], for which the IC50 on AuroraA-TPX2 (given as class symbols) and on AuroraB (given as class symbols) was no more than 0.1 µM throughout.
In the case of `c1ccc(-c2nnc(Nc3ccc(Oc4ncccc4-c4ccnc(NCCCN5CCC5)n4)cc3)c3ccccc23)cc1` [compound 295, N-(4-((3-(2-((3-(1-azetidinyl)propyl)amino)-4-pyrimidinyl)-2-pyridinyl)oxy)phenyl)-4-phenyl-1-phthalazinamine], the IC50 on AuroraA-TPX2 (given as class symbols) was 0.1 to 0.5 µM; on AuroraB (given as class symbols), no more than 0.1 µM.
The matching figures for `CC(=O)OCc1cccc(-c2nnc(Nc3ccc(Oc4ncccc4-c4ccnc(N)n4)cc3)c3ccccc23)n1` [compound 296, (6-(4-((4-((3-(2-amino-4-pyrimidinyl)-2-pyridinyl)oxy)phenyl)amino)-1-phthalazinyl)-2-pyridinyl)methyl acetate]: no more than 0.1 µM and no more than 0.1 µM.
As for `Nc1nccc(-c2cccnc2Oc2ccc(Nc3nnc(-c4cccc(CO)n4)c4ccccc34)cc2)n1` [compound 297, (6-(4-((4-((3-(2-amino-4-pyrimidinyl)-2-pyridinyl)oxy)phenyl)amino)-1-phthalazinyl)-2-pyridinyl)methanol], the IC50 at AuroraA-TPX2 (given as class symbols) and on AuroraB (given as class symbols) was no more than 0.1 µM in each case.
In the case of `ONc1nccc(-c2cccnc2Oc2ccc(Nc3nnc(-c4ccccc4)c4ccccc34)cc2)n1` [compound 310, N-(4-((3-(2-(hydroxyamino)-4-pyrimidinyl)-2-pyridinyl)oxy)phenyl)-4-phenyl-1-phthalazinamine], the IC50 at AuroraA-TPX2 (given as class symbols) and on AuroraB (given as class symbols) was no more than 0.1 µM in each case.
With `c1ccc(-c2nnc(Nc3ncc(Oc4ncccc4-c4ccncc4)cn3)c3ccccc23)cc1` [compound 311, N-(5-(3,4'-bipyridin-2-yloxy)-2-pyrimidinyl)-4-phenyl-1-phthalazinamine], the IC50 on AuroraA-TPX2 (given as class symbols) and at AuroraB (given as class symbols) was 0.5 to 2.5 µM in each case.
For the compound `Cc1csc(-c2nnc(Nc3ccc(Oc4ncccc4-c4c[nH]nc4N)c(F)c3)c3ccccc23)n1` [compound 312, N-(4-((3-(3-amino-1H-pyrazol-4-yl)-2-pyridinyl)oxy)-3-fluorophenyl)-4-(4-methyl-1,3-thiazol-2-yl)-1-phthalazinamine], the IC50 at AuroraA-TPX2 (given as class symbols) and on AuroraB (given as class symbols) was no more than 0.1 µM throughout.
Regarding `Nc1nccc(-c2cccnc2Oc2ccc(Nc3nnc(-c4ccccc4)c4ccsc34)cn2)n1` [compound 313, N-(6-((3-(2-amino-4-pyrimidinyl)-2-pyridinyl)oxy)-3-pyridinyl)-4-phenylthieno[2,3-d]pyridazin-7-amine], the IC50 at AuroraA-TPX2 (given as class symbols) and on AuroraB (given as class symbols) was no more than 0.1 µM throughout.
Consider `Nc1n[nH]cc1-c1cccnc1Oc1ccc(Nc2nnc(-c3ccccc3)c3ccccc23)cc1F` [compound 314, N-(4-((3-(3-amino-1H-pyrazol-4-yl)-2-pyridinyl)oxy)-3-fluorophenyl)-4-phenyl-1-phthalazinamine], for which the results for the IC50 on AuroraA-TPX2 (setting [1]) and on AuroraB (setting [1]) were 0.0045 µM and 0.0024 µM, respectively.
Turning to `Nc1nccc(-c2cccnc2Oc2ccc(Nc3nnc(-c4ccc(Cl)cc4)c4ccccc34)cn2)n1` [compound 315, N-(6-((3-(2-amino-4-pyrimidinyl)-2-pyridinyl)oxy)-3-pyridinyl)-4-(4-chlorophenyl)-1-phthalazinamine], the IC50 at AuroraA-TPX2 (given as class symbols) and on AuroraB (given as class symbols) was no more than 0.1 µM in each case.
Turning to `CS(=O)(=O)c1cccc(-c2nnc(Nc3ccc(Oc4ncccc4-c4ccnc(N)n4)cc3)c3ccccc23)c1` [compound 316, N-(4-((3-(2-amino-4-pyrimidinyl)-2-pyridinyl)oxy)phenyl)-4-(3-(methylsulfonyl)phenyl)-1-phthalazinamine], the IC50 at AuroraA-TPX2 (given as class symbols) and on AuroraB (given as class symbols) was no more than 0.1 µM each time.
Consider `COc1cccc(-c2nnc(Nc3ccc(Oc4ncccc4-c4c[nH]nc4N)cc3)c3ccccc23)c1` [compound 317, N-(4-((3-(3-amino-1H-pyrazol-4-yl)-2-pyridinyl)oxy)phenyl)-4-(3-(methyloxy)phenyl)-1-phthalazinamine], for which the IC50 at AuroraA-TPX2 (given as class symbols) and at AuroraB (given as class symbols) was no more than 0.1 µM each time.
Turning to `CS(=O)(=O)c1cccc(-c2nnc(Nc3ccc(Oc4ncccc4-c4ccnc(N)n4)nc3)c3ccccc23)c1` [compound 318, N-(6-((3-(2-amino-4-pyrimidinyl)-2-pyridinyl)oxy)-3-pyridinyl)-4-(3-(methylsulfonyl)phenyl)-1-phthalazinamine], the figures for the IC50 at AuroraA-TPX2 (setting [1]) and at AuroraB (setting [1]) were 0.0238 µM and 0.0056 µM, respectively.
For the compound `COc1ccc(-c2nnc(Nc3ccc(Oc4ncccc4-c4ccnc(N)n4)nc3)c3ccccc23)cc1` [compound 319, N-(6-((3-(2-amino-4-pyrimidinyl)-2-pyridinyl)oxy)-3-pyridinyl)-4-(4-(methyloxy)phenyl)-1-phthalazinamine], the IC50 at AuroraA-TPX2 (given as class symbols) and on AuroraB (given as class symbols) was no more than 0.1 µM each time.
As to `COc1ccc(-c2nnc(Nc3ccc(Oc4ncccc4-c4ccnc(N)n4)cc3)c3ccccc23)cc1` [compound 320, N-(4-((3-(2-amino-4-pyrimidinyl)-2-pyridinyl)oxy)phenyl)-4-(4-(methyloxy)phenyl)-1-phthalazinamine], the IC50 on AuroraA-TPX2 (given as class symbols) and on AuroraB (given as class symbols) was no more than 0.1 µM throughout.
With `CCOc1ccc(-c2nnc(Nc3ccc(Oc4ncccc4-c4ccnc(N)n4)cc3)c3ccccc23)cc1` [compound 321, N-(4-((3-(2-amino-4-pyrimidinyl)-2-pyridinyl)oxy)phenyl)-4-(4-(ethyloxy)phenyl)-1-phthalazinamine], the IC50 on AuroraA-TPX2 (given as class symbols) and at AuroraB (given as class symbols) was no more than 0.1 µM throughout.
